Where two headings read alike, the source gives them in different places.
Legend:
HDAC8 = biological target: T1, HDAC8 (Homo sapiens, UniProt Q9BY41); assay: HDAC biochemical assay (Fluor-de-Lys), HDAC8; settings: for IC50: human recombinant HDAC8; for Selectivity ratio of HDAC8 over HDAC6: IC50 HDAC8 / IC50 HDAC6
T1 construct: EurofinPanlabs (Taipei, Taiwan)
T1 sequence (Q9BY41 1-377): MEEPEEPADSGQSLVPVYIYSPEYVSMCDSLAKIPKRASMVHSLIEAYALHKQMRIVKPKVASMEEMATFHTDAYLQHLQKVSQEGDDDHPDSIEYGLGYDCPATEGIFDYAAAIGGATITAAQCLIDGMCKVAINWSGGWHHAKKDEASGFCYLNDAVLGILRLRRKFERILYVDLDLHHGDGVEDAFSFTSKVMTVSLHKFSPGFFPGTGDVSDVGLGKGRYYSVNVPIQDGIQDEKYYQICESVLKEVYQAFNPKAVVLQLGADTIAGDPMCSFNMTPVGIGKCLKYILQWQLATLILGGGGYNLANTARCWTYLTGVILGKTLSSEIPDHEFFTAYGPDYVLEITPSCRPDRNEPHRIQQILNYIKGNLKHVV

HDAC1 = biological target: T2, HDAC1 (Homo sapiens, UniProt Q13547); assay: HDAC biochemical assay (Fluor-de-Lys), HDAC1; settings: for IC50: human recombinant HDAC1, values > 10 μM estimated from best curve fitting; for Selectivity ratio of HDAC1 over HDAC6: IC50 HDAC1 / IC50 HDAC6
T2 construct: EurofinPanlabs (Taipei, Taiwan)
T2 sequence (Q13547 whole entry): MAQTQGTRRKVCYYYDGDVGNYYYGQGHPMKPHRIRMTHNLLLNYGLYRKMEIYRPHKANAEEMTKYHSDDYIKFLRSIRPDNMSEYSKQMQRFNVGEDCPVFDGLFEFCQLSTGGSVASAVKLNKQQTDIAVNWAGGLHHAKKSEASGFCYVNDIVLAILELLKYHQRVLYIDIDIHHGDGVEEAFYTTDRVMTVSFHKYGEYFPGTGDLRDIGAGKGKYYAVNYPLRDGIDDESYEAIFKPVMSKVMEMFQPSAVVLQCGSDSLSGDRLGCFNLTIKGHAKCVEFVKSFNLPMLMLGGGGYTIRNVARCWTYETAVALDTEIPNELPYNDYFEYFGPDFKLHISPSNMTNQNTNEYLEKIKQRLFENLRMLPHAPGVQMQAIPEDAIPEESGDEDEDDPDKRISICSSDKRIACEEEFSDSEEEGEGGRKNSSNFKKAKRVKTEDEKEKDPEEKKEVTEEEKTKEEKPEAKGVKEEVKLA

A549 cells [1] = assay: Sulforhodamine B antiproliferative assay, A549; format: cell-based; settings: Homo sapiens
Method: (§1) All human cancer cells were maintained in RPMI 1640 medium supplemented with 10% FBS and penicillin (100 units/ml)/streptomycin (100 µg/ml)/amphotericin B (0.25 µg/ml). All cells were maintained in humidified air containing 5% CO2 at 37 °C and cultured every 2–3 days. […]
(§2) Cells were seeded at the density of 5000 cells/well into 96-plate overnight. Basal cells were fixed with 10% trichloroacetic acid (TCA) to represent the cell population at the time of compound addition (T0). After additional incubation of DMSO (C) or different doses of test compounds (Tx) for 48 h, cells were fixed with 10% TCA and stained with SRB at 0.4% (w/v) in 1% AcOH. Unbound SRB was washed out using 1% AcOH and SRB bound cells were solubilised with 10 mM Trizma base. The absorbance was read at a wavelength of 515 nm. The 50% growth inhibition (GI50) was calculated by 100 − [(Tx – T0)/(C – T0)] × 100.

HCT116 cells = assay: Sulforhodamine B antiproliferative assay, HCT116; format: cell-based; settings: Homo sapiens, HCT-116, SRB, 48 h, values > 10 μM estimated from best curve fitting
Method: as §1, §2

HDAC6 = biological target: T3, HDAC6 (Homo sapiens, UniProt Q9UBN7); assay: HDAC biochemical assay (Fluor-de-Lys), HDAC6; settings: human recombinant HDAC6
T3 construct: EurofinPanlabs (Taipei, Taiwan)
T3 sequence (Q9UBN7 1-1215): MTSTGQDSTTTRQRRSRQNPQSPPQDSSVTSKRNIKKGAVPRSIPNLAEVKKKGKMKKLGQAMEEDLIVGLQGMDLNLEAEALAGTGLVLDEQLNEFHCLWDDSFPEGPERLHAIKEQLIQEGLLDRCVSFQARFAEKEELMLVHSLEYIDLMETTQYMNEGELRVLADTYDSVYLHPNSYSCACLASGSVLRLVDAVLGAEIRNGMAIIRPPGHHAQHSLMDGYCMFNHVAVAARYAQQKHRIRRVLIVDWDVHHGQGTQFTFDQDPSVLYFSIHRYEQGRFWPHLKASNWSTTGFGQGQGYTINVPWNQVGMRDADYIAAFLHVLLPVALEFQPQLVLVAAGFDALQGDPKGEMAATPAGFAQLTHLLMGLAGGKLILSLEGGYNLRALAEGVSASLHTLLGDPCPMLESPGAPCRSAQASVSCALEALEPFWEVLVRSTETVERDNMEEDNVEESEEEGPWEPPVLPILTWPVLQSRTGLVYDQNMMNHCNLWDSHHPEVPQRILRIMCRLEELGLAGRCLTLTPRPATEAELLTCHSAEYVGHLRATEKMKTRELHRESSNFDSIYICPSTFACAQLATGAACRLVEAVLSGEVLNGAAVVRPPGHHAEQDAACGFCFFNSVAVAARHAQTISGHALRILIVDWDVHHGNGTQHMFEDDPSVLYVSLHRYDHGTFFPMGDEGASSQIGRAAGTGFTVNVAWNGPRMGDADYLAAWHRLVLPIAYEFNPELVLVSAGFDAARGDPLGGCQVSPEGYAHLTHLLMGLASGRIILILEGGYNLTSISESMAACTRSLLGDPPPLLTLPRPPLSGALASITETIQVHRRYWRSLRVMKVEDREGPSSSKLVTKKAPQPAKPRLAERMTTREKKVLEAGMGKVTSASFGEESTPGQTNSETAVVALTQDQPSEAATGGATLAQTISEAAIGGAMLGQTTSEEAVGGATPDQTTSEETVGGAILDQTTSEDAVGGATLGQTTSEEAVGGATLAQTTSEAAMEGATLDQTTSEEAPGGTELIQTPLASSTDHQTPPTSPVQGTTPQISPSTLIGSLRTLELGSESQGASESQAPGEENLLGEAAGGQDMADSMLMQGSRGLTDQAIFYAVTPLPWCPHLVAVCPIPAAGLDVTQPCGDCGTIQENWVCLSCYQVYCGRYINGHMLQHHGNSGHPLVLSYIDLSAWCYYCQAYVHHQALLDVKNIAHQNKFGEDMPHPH

HDAC2 = biological target: T4, HDAC2 (Homo sapiens, UniProt Q92769); assay: HDAC biochemical assay (Fluor-de-Lys), HDAC2; settings: for IC50: human recombinant HDAC2, dash = no inhibition or activity that could not be fitted to an IC50 curve; for Selectivity ratio of HDAC2 over HDAC6: IC50 HDAC2 / IC50 HDAC6
T4 construct: EurofinPanlabs (Taipei, Taiwan)
T4 sequence (Q92769 whole entry): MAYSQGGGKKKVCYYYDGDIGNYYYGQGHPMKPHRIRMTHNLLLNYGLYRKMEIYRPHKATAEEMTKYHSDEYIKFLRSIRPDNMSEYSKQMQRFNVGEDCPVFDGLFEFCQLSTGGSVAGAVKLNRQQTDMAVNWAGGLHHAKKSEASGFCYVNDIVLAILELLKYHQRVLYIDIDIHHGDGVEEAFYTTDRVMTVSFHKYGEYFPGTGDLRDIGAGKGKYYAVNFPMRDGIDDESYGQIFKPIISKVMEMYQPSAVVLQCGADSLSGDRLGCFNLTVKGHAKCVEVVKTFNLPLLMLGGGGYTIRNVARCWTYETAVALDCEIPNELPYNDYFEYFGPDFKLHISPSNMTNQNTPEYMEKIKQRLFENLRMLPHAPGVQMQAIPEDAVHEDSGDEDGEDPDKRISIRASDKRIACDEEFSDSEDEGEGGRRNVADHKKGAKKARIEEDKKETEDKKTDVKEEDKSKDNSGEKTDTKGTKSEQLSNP

A549 cells [2] = assay: Western blot analysis of apoptosis and DNA damage markers; format: cell-based, human; settings: for Caspase 3, 8, and 9 cleavage (Western blot): A549 cells treated for 48 h, 0.25, 5 and 10 µM
Method: buffer (20 mMTris-HCl pH 7.5, 150 mM NaCl, 1 mM Na2EDTA, 1 mM EGTA, 1% NP-40, 1% sodium deoxycholate, 0.1% SDS, 2.5 mM β-glycerylphosphate, 1 mM Na4P2O7, 5 mM NaF, 1 mM Na3VO4 and protease inhibitor cocktail from Millipore) on ice for 30 min following by centrifugation at 13000 rpm for 30 min. Protein concentrations were determined and equal amounts of protein were separated by 8–15% sodium dodecyl sulphate-polyacrylamide gel electrophoresis (SDS–PAGE) and transferred to poly(vinylidene difluoride) (PVDF) membranes. Membranes were immunoblotted with specific antibodies overnight at 4 °C and then applied to appropriate horseradish peroxidase-conjugated anti-mouse or anti-rabbit IgG secondary antibodies for 1 h at RT. Signals were detected using an enhanced chemiluminescence (Amersham, Buckinghamshire, UK).

A549 cells [3] = assay: Flow cytometry cell cycle analysis; format: cell-based, human; settings: A549 cells, 0.25, 0.5, 10 μM, 48 h, propidium iodide
Method: Briefly, A549 cells were starved with EBM-2 medium overnight and were subsequently replenished with EGM-2 medium with or without 17, 25, and 26 (0.25, 0.5, 10 µM) for 48 h. After being trypsinized and fixed in ice-cold 75% MeOH for 1 h at −20 °C, A549 cells were washed with PBS and resuspended in 0.2 ml DNA extraction buffer (0.2 M Na2HPO4, 0.1 M citric acid; pH 7.8) for 30 min. Then the cells were stained with propidium iodide solution (PI; 100 µg/ml RNase, 80 µg/ml propidium iodide, 0.1% Triton X-100) in PBS. FACScan flow cytometry was utilised to determine cell cycle distribution, and data analysis was performed with CellQuest software (BD Biosciences).

A549 cells [4] = test system: A549 cells; parameters: method as in PMID 27344487; settings: reference compounds, read-out: Antiproliferative activity IC50, A549; cited from earlier work
[5] = A549 cells, SRB, 48 h, values > 10 μM estimated from best curve fitting, read-out: Antiproliferative activity IC50, A549
[6] = range over both cell lines (A549 and HCT116) and both compounds, abstract, read-out: IC50 values against A549 and HCT116 cells

SMILES	IC50 (HDAC8) [nM]	IC50 (HDAC1) [nM]	IC50 (A549 cells [1]; [5]) [nM]	IC50 (HCT116 cells) [nM]	IC50 (HDAC6) [nM]	IC50 (HDAC2) [nM]	Selectivity ratio of HDAC2 over HDAC6 (HDAC2)	melting point [°C]	Selectivity ratio of HDAC8 over HDAC6 (HDAC8)	Selectivity ratio of HDAC1 over HDAC6 (HDAC1)	IC50 (A549 cells [1]; [6]) [nM]	Rank of efficacy in cleaving caspase isoforms (Western blot) (A549 cells [2]; A549 cells, 48 h, comparison among the three tested compounds)	Cell cycle distribution, sub G1 population (A549 cells [3])	Caspase 3, 8, and 9 cleavage (Western blot) (A549 cells [2])	IC50 (A549 cells [4]) [nM]
O=C(NO)c1ccc(CNc2cccc3cc(-c4ccccc4)cnc23)cc1 [Compound 18, N-Hydroxy-4-[(3-phenyl-quinolin-8-ylamino)-methyl]-benzamide]	6880	5300	4970 ± 60	4700 ± 380	19.4	> 10000	(> 515)	172.7 to 173.2	(355)	(273)	–	–	–	–	–
N#Cc1cccc(-c2cnc3c(NCc4ccc(C(=O)NO)cc4)cccc3c2)c1 [Compound 22, 4-(((3–(3-Cyanophenyl)quinolin-8-yl)amino)methyl)-N-hydroxybenzamide]	3830	9110	2040 ± 350	3180 ± 160	36.2	1980	(55)	–	(106)	(252)	–	–	–	–	–
O=C(NO)c1ccc(CNc2cccc3cc(-c4ccsc4)cnc23)cc1 [Compound 29, N-Hydroxy-4-(((3-(thiophen-3-yl)quinolin-8-yl)amino)methyl)benzamide]	4930	6000	3840 ± 400	3590 ± 510	30.1	3520	(117)	–	(164)	(199)	–	–	–	–	–
O=C(CCCCCCC(=O)Nc1ccccc1)NO [SAHA, N^1-hydroxy-N^8-phenyloctanediamide]	–	–	–	–	–	–	–	–	–	–	–	–	–	–	1020 ± 150

More lines, main results first:

IC50 (HDAC8) [nM]	IC50 (HDAC1) [nM]	IC50 (A549 cells [1]; [5]) [nM]	IC50 (HCT116 cells) [nM]	IC50 (HDAC6) [nM]	IC50 (HDAC2) [nM]	Selectivity ratio of HDAC2 over HDAC6 (HDAC2)	melting point [°C]	Selectivity ratio of HDAC8 over HDAC6 (HDAC8)	Selectivity ratio of HDAC1 over HDAC6 (HDAC1)	IC50 (A549 cells [1]; [6]) [nM]	SMILES	Rank of efficacy in cleaving caspase isoforms (Western blot) (A549 cells [2]; A549 cells, 48 h, comparison among the three tested compounds)	Cell cycle distribution, sub G1 population (A549 cells [3])	Caspase 3, 8, and 9 cleavage (Western blot) (A549 cells [2])	IC50 (A549 cells [4]) [nM]
3640	4320	3140 ± 310	4820 ± 290	20.2	–	–	–	–	–	–	O=C(NO)c1ccc(CNc2cccc3cc(Cl)cnc23)cc1 [Compound 14, 4-[(3-Chloro-quinolin-8-ylamino)-methyl]-N-hydroxy-benzamide]	–	–	–	–
2760	4950	3110 ± 240	4760 ± 430	7.79	> 10000	–	–	–	–	–	COc1cnc2c(NCc3ccc(C(=O)NO)cc3)cccc2c1 [Compound 17, N-Hydroxy-4-[(3-methoxy-quinolin-8-ylamino)-methyl]-benzamide]	least potent amongst these three compounds	–	–	–
1800	2620	1290 ± 410	1610 ± 220	4.75	1310	(276)	–	(379)	(552)	1290 to 2130	O=C(NO)c1ccc(CNc2cccc3cc(-c4cccnc4)cnc23)cc1 [Compound 25, N-Hydroxy-4-(((3-(pyridin-3-yl)quinolin-8-yl)amino)methyl)benzamide]	–	concentration dependent accumulation of A549 cells in sub G1 phase	dose dependent increases in caspase 3, 8, and 9 cleavage	–
2350	5130	2130 ± 130	2030 ± 460	8.61	2890	(336)	–	(273)	(596)	1290 to 2130	O=C(NO)c1ccc(CNc2cccc3cc(-c4ccncc4)cnc23)cc1 [Compound 26, N-Hydroxy-4-(((3-(pyridin-4-yl)quinolin-8-yl)amino)methyl)benzamide]	–	concentration dependent accumulation of A549 cells in sub G1 phase	dose dependent increases in caspase 3, 8, and 9 cleavage	–
3140	3400	3180 ± 190	2200 ± 170	20.7	1280	(62)	–	(152)	(164)	–	O=C(NO)c1ccc(CNc2cccc3cc(-c4ccco4)cnc23)cc1 [Compound 27, 4-(((3-(Furan-2-yl)quinolin-8-yl)amino)methyl)-N-hydroxybenzamide]	–	–	–	–
2910	4590	3770 ± 280	3770 ± 210	13.4	2100	(157)	–	(216)	(343)	–	O=C(NO)c1ccc(CNc2cccc3cc(-c4ccoc4)cnc23)cc1 [Compound 28, 4-(((3-(Furan-3-yl)quinolin-8-yl)amino)methyl)-N-hydroxybenzamide]	–	–	–	–

Reference: article PMC7655065, “Effect of 3-subsitution of quinolinehydroxamic acids on selectivity of histone deacetylase isoforms” (Journal of Enzyme Inhibition and Medicinal Chemistry, 2020)
